target: CYP154C7; experiment: UV/Vis spectral titration, type I spin shift; format: binding, Streptomyces sp. PAMC26508

Row | Structure (SMILES) | Kd [nM]
1 | C[C@]12CCC(=O)C=C1CC[C@@H]1[C@@H]2CC[C@]2(C)C(=O)CC[C@@H]12 [androstenedione] | 201 ± 43
2 | C[C@]12CCC(=O)C=C1CC[C@@H]1[C@@H]2C(=O)C[C@@]2(C)[C@H]1CC[C@]2(O)C(=O)CO [cortisone] | 2000 ± 340
3 | C[C@]12CC[C@H]3[C@@H](CCC4=CC(=O)CC[C@@]43C)[C@@H]1CC[C@@H]2O [testosterone] | 304 ± 70

Reference: PMC11544072 (Heliyon, 2024)
